In article PMC12051234, “NrdR in Streptococcus and Listeria spp.: DNA Helix Phase Dependence of the Bacterial Ribonucleotide Reductase Repressor” (Molecular Microbiology, 2025):

Target: T1, LmoNrdR (Listeria monocytogenes, UniProt Q8Y6W9)
T1 construct: gene nrdR; full-length, C-terminal His6 tag kept (pET30a(+), NdeI/XhoI), E. coli BL21(DE3); 19 kDa with tag
T1 sequence (Q8Y6W9 1-154): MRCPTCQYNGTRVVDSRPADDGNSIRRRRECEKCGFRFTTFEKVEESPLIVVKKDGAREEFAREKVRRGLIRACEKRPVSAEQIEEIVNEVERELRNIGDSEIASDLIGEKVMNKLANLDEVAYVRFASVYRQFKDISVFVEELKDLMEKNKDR
Test: size exclusion chromatography, oligomer shift; MST of DNA binding
Conditions: 25 mM Bis-Tris propane pH 6.5, 5 mM MgCl2, 100 mM KCl, 4 C; ADP alone

SMILES: Nc1ncnc2c1ncn2[C@@H]1O[C@H](COP(=O)(O)OP(=O)(O)O)[C@@H](O)[C@H]1O [ADP]
- size exclusion chromatography, oligomer shift; MST of DNA binding: LmoNrdR also eluted as a tetramer in the presence of only ADP
